In patent US20250034210A1, “DLL3 TARGETING PEPTIDES AND CONSTRUCTS THEREOF” (MARIANA ONCOLOGY INC., priority 2023, published 2025):
*1 amine or outer side, *2 acyl side, *3 side chain or, on linkers, in order; H or OH if unused. Where a SMILES comes first, the peptide text is derived from it. Bridges are numbered along the chain shown (N, C = ends). [ ]: non-standard residue; d: D form. The star is where a group is joined. ξ: configuration not given here. X2 = O=C(O)CN1CCN(CC(=O)O)CCN(CC(=O)NCCCOCCOCCOCCCN*)CCN(CC(=O)O)CC1; DOTA = O=C(O)CN1CCN(CC(=O)O)CCN(CC(=O)*)CCN(CC(=O)O)CC1; Trp(5-F) = N[C@@H](Cc1c[nH]c2ccc(F)cc12)C(=O)O; PEG8 = NCCOCCOCCOCCOCCOCCOCCOCCOCCC(=O)O; X1 = O=C(C[C@H]1CC[C@H](N[*:1])CC1)[*:2]; 1Nal = N[C@@H](Cc1cccc2ccccc12)C(=O)O; 2Nal = N[C@@H](Cc1ccc2ccccc2c1)C(=O)O; Suc = O=C(CCC(=O)[*:2])[*:1]; ξIle = CC[C@H](C)C(N)C(=O)O; Ahx = NCCCCCC(=O)O; ξP = O=C(O)C1CCCN1; Sar = CNCC(=O)O

target: T1, human DLL3 (Homo sapiens, UniProt Q9NYJ7); test: Affinity determination by Surface Plasmon Resonance (SPR), biotinylated human DLL3 immobilized on streptavidin sensor chip; settings: 25° C., Biacore, 1:1 binding model
T1 construct: biotin (biotinylated)
T1 sequence (Q9NYJ7 27-618): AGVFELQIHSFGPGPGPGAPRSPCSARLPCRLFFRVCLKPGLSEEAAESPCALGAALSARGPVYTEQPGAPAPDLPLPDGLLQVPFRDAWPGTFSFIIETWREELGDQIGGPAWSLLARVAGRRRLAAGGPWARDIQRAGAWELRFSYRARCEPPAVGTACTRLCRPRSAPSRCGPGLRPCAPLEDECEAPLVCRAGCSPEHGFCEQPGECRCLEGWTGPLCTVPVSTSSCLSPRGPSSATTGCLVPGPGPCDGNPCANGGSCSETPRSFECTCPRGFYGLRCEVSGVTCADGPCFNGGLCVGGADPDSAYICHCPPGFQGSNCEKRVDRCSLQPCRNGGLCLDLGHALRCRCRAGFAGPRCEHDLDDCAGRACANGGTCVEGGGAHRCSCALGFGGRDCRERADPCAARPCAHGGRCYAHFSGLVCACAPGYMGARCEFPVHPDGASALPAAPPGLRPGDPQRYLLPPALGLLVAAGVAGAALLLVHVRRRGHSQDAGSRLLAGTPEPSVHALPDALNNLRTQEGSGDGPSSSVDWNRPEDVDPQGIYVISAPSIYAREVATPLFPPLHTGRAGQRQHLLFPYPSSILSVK
Method: Affinity Determination by Surface Plasmon Resonance (SPR). SPR studies were performed on the compounds disclosed herein using the following protocol.
The binding affinity and binding kinetic parameters at 25° C. were determined using Biacore S200 or biacore 8K instrument. Biotinylated target ligand human DLL3 was immobilized on a streptavidin sensor chip. A reference surface was set up for nonspecific binding and refractive index changes. For analysis of the kinetics of interactions, varying concentrations of samples were injected at a flow rate of 100 μL/min using running buffer containing 20 mM phosphate buffer with 2.7 mM KCl, 137 mM NaCl, 0.05% Surfactant P20 and 2% DMSO. Sensorgram curves were fitted with 1:1 binding model, and affinity and kinetic parameters were obtained using Biacore Insight evaluation 4.0. software.

Kd [nM]	SMILES
10 to 100	CC[C@H](C)[C@H](NC(=O)[C@@H](NC(=O)[C@H](Cc1c[nH]c2ccccc12)NC(=O)C[C@H]1CC[C@H](NC(=O)CN2CCN(CC(=O)O)CCN(CC(=O)O)CCN(CC(=O)O)CC2)CC1)[C@@H](C)O)C(=O)N[C@H]1CSSC[C@@H](C(=O)N[C@@H](Cc2c[nH]c3ccccc23)C(=O)N2CCC[C@H]2C(N)=O)NC(=O)[C@H](CC(=O)O)NC(=O)[C@H](Cc2cnc[nH]2)NC(=O)[C@H](Cc2c[nH]c3ccccc23)NC(=O)[C@H](CC(N)=O)NC(=O)[C@H](CC(N)=O)NC1=O [compound 19, DOTA-CyHex-W-T-I-C(3)-N-N-W-H-D-C(3)-W-P-CONH2] ({DOTA}-[X1]WTICNNWHDCWP-NH2; disulfide 5-11)
10 to 100	CC[C@H](C)C(NC(=O)[C@@H](NC(=O)[C@H](Cc1c[nH]c2ccccc12)NC(=O)CCCCCNC(=O)CN1CCN(CC(=O)O)CCN(CC(=O)O)CCN(CC(=O)O)CC1)[C@@H](C)O)C(=O)N[C@H]1CSSC[C@@H](C(=O)N[C@@H](Cc2c[nH]c3ccccc23)C(=O)N2CCC[C@H]2C(N)=O)NC(=O)[C@H](CC(=O)O)NC(=O)[C@H](Cc2cnc[nH]2)NC(=O)[C@H](Cc2cccc3ccccc23)NC(=O)[C@H](CC(N)=O)NC(=O)[C@H](CC(N)=O)NC1=O (stereo partly drawn) [compound 56, DOTA-Ahx-W-T-I-C(3)-N-N-(1Nal)-H-D-C(3)-W-P-CONH2] ({DOTA-Ahx}-WT[ξIle]CNN[1Nal]HDCWP-NH2; disulfide 4-10)
10 to 100	CC[C@H](C)[C@H](NC(=O)[C@@H](NC(=O)[C@H](Cc1c[nH]c2ccccc12)NC(=O)CCCCCNC(=O)CN1CCN(CC(=O)O)CCN(CC(=O)O)CCN(CC(=O)O)CC1)[C@@H](C)O)C(=O)N[C@H]1CSSC[C@@H](C(=O)N[C@@H](Cc2c[nH]c3ccccc23)C(=O)N2CCC[C@H]2C(N)=O)NC(=O)[C@H](CC(=O)O)NC(=O)[C@H](Cc2cnc[nH]2)NC(=O)[C@H](Cc2c[nH]c3ccc(F)cc23)NC(=O)[C@H](CC(N)=O)NC(=O)[C@H](CC(N)=O)NC1=O [compound 59, DOTA-Ahx-W-T-I-C(3)-N-N-(5Fluoro-W)-H-D-C(3)-W-P-CONH2] ({DOTA-Ahx}-WTICNN[Trp(5-F)]HDCWP-NH2; disulfide 4-10)
10 to 100	CC[C@H](C)[C@H](NC(=O)[C@@H](NC(=O)[C@H](Cc1c[nH]c2ccccc12)NC(=O)CCCCCNC(=O)CN1CCN(CC(=O)O)CCN(CC(=O)O)CCN(CC(=O)O)CC1)[C@@H](C)O)C(=O)N[C@H]1CSSC[C@@H](C(=O)N[C@@H](Cc2c[nH]c3ccc(F)cc23)C(=O)N2CCC[C@H]2C(N)=O)NC(=O)[C@H](CC(=O)O)NC(=O)[C@H](Cc2cnc[nH]2)NC(=O)[C@H](Cc2c[nH]c3ccccc23)NC(=O)[C@H](CC(N)=O)NC(=O)[C@H](CC(N)=O)NC1=O [compound 60, DOTA-Ahx-W-T-I-C(3)-N-N-W-H-D-C(3)-(5Fluoro-W)-P-CONH2] ({DOTA-Ahx}-WTICNNWHDC[Trp(5-F)]P-NH2; disulfide 4-10)

More lines, now with the values behind:

SMILES	Kd [nM]
CC[C@H](C)[C@H](NC(=O)[C@@H](NC(=O)[C@H](Cc1c[nH]c2ccccc12)NC(=O)CN1CCN(CC(=O)O)CCN(CC(=O)O)CCN(CC(=O)O)CC1)[C@@H](C)O)C(=O)N[C@H]1CSSC[C@@H](C(=O)N[C@@H](Cc2c[nH]c3ccccc23)C(=O)N2CCC[C@H]2C(N)=O)NC(=O)[C@H](CC(=O)O)NC(=O)[C@H](Cc2cnc[nH]2)NC(=O)[C@H](Cc2c[nH]c3ccccc23)NC(=O)[C@H](CC(N)=O)NC(=O)[C@H](CC(N)=O)NC1=O [compound 17, DOTA-W-T-I-C(3)-N-N-W-H-D-C(3)-W-P-CONH2] ({DOTA}-WTICNNWHDCWP-NH2; disulfide 4-10)	10 to 100
CC[C@H](C)[C@H](NC(=O)[C@@H](NC(=O)[C@H](Cc1c[nH]c2ccccc12)NC(=O)CCOCCOCCOCCOCCOCCOCCOCCOCCNC(=O)CN1CCN(CC(=O)O)CCN(CC(=O)O)CCN(CC(=O)O)CC1)[C@@H](C)O)C(=O)N[C@H]1CSSC[C@@H](C(=O)N[C@@H](Cc2c[nH]c3ccccc23)C(=O)N2CCC[C@H]2C(N)=O)NC(=O)[C@H](CC(=O)O)NC(=O)[C@H](Cc2cnc[nH]2)NC(=O)[C@H](Cc2c[nH]c3ccccc23)NC(=O)[C@H](CC(N)=O)NC(=O)[C@H](CC(N)=O)NC1=O [compound 20, DOTA-PEG8-W-T-I-C(3)-N-N-W-H-D-C(3)-W-P-CONH2] ({DOTA-PEG8}-WTICNNWHDCWP-NH2; disulfide 4-10)	10 to 100
CC[C@H](C)[C@H](NC(=O)[C@@H](NC(=O)[C@H](Cc1c[nH]c2ccccc12)NC(=O)CNC(=O)CNC(=O)CCC(=O)NCCCOCCOCCOCCCNC(=O)CN1CCN(CC(=O)O)CCN(CC(=O)O)CCN(CC(=O)O)CC1)[C@@H](C)O)C(=O)N[C@H]1CSSC[C@@H](C(=O)N[C@@H](Cc2c[nH]c3ccccc23)C(=O)N2CCC[C@H]2C(N)=O)NC(=O)[C@H](CC(=O)O)NC(=O)[C@H](Cc2c[nH]cn2)NC(=O)[C@H](Cc2c[nH]c3ccccc23)NC(=O)[C@H](CC(N)=O)NC(=O)[C@H](CC(N)=O)NC1=O [compound 21] ({X2-Suc}-GGWTICNNWHDCWP-NH2; disulfide 6-12)	1 to 10
CC[C@H](C)[C@H](NC(=O)[C@@H](NC(=O)[C@H](Cc1c[nH]c2ccccc12)NC(=O)CN(C)C(=O)CN(C)C(=O)CN(C)C(=O)CN(C)C(=O)CN(C)C(=O)CN1CCN(CC(=O)O)CCN(CC(=O)O)CCN(CC(=O)O)CC1)[C@@H](C)O)C(=O)N[C@H]1CSSC[C@@H](C(=O)N[C@@H](Cc2c[nH]c3ccccc23)C(=O)N2CCCC2C(N)=O)NC(=O)[C@H](CC(=O)O)NC(=O)[C@H](Cc2cnc[nH]2)NC(=O)[C@H](Cc2c[nH]c3ccccc23)NC(=O)[C@H](CC(N)=O)NC(=O)[C@H](CC(N)=O)NC1=O (stereo partly drawn) [compound 22, DOTA-(Sar)5-W-T-I-C(3)-N-N-W-H-D-C(3)-W-P-CONH2] ({DOTA}-[Sar][Sar][Sar][Sar][Sar]WTICNNWHDCW[ξP]-NH2; disulfide 9-15)	1 to 10
CC[C@H](C)C(NC(=O)[C@@H](NC(=O)[C@H](Cc1c[nH]c2ccccc12)NC(=O)CCCCCNC(=O)CN1CCN(CC(=O)O)CCN(CC(=O)O)CCN(CC(=O)O)CC1)[C@@H](C)O)C(=O)N[C@H]1CSSC[C@@H](C(=O)N[C@@H](Cc2cccc3ccccc23)C(=O)N2CCC[C@H]2C(N)=O)NC(=O)[C@H](CC(=O)O)NC(=O)[C@H](Cc2cnc[nH]2)NC(=O)[C@H](Cc2c[nH]c3ccccc23)NC(=O)[C@H](CC(N)=O)NC(=O)[C@H](CC(N)=O)NC1=O (stereo partly drawn) [compound 54, DOTA-Ahx-W-T-I-C(3)-N-N-W-H-D-C(3)-(1Nal)-P-CONH2] ({DOTA-Ahx}-WT[ξIle]CNNWHDC[1Nal]P-NH2; disulfide 4-10)	10 to 100
CC[C@H](C)C(NC(=O)[C@@H](NC(=O)[C@H](Cc1c[nH]c2ccccc12)NC(=O)CCCCCNC(=O)CN1CCN(CC(=O)O)CCN(CC(=O)O)CCN(CC(=O)O)CC1)[C@@H](C)O)C(=O)N[C@H]1CSSC[C@@H](C(=O)N[C@@H](Cc2ccc3ccccc3c2)C(=O)N2CCC[C@H]2C(N)=O)NC(=O)[C@H](CC(=O)O)NC(=O)[C@H](Cc2cnc[nH]2)NC(=O)[C@H](Cc2c[nH]c3ccccc23)NC(=O)[C@H](CC(N)=O)NC(=O)[C@H](CC(N)=O)NC1=O (stereo partly drawn) [compound 55, DOTA-Ahx-W-T-I-C(3)-N-N-W-H-D-C(3)-(2Nal)-P-CONH2] ({DOTA-Ahx}-WT[ξIle]CNNWHDC[2Nal]P-NH2; disulfide 4-10)	100 to 300
CC[C@H](C)C(NC(=O)[C@@H](NC(=O)[C@H](Cc1c[nH]c2ccccc12)NC(=O)CCCCCNC(=O)CN1CCN(CC(=O)O)CCN(CC(=O)O)CCN(CC(=O)O)CC1)[C@@H](C)O)C(=O)N[C@H]1CSSC[C@@H](C(=O)N[C@@H](Cc2c[nH]c3ccccc23)C(=O)N2CCC[C@H]2C(N)=O)NC(=O)[C@H](CC(=O)O)NC(=O)[C@H](Cc2cnc[nH]2)NC(=O)[C@H](Cc2ccc3ccccc3c2)NC(=O)[C@H](CC(N)=O)NC(=O)[C@H](CC(N)=O)NC1=O (stereo partly drawn) [compound 57, DOTA-Ahx-W-T-I-C(3)-N-N-(2Nal)-H-D-C(3)-W-P-CONH2] ({DOTA-Ahx}-WT[ξIle]CNN[2Nal]HDCWP-NH2; disulfide 4-10)	1 to 10
CC[C@H](C)[C@H](NC(=O)[C@@H](NC(=O)[C@H](Cc1c[nH]c2ccc(F)cc12)NC(=O)CCCCCNC(=O)CN1CCN(CC(=O)O)CCN(CC(=O)O)CCN(CC(=O)O)CC1)[C@@H](C)O)C(=O)N[C@H]1CSSC[C@@H](C(=O)N[C@@H](Cc2c[nH]c3ccccc23)C(=O)N2CCC[C@H]2C(N)=O)NC(=O)[C@H](CC(=O)O)NC(=O)[C@H](Cc2cnc[nH]2)NC(=O)[C@H](Cc2c[nH]c3ccccc23)NC(=O)[C@H](CC(N)=O)NC(=O)[C@H](CC(N)=O)NC1=O [compound 58, DOTA-Ahx-(5Fluoro-W)-T-I-C(3)-N-N-W-H-D-C(3)-W-P-CONH2] ({DOTA-Ahx}-[Trp(5-F)]TICNNWHDCWP-NH2; disulfide 4-10)	1 to 10
